# Results published in ChEMBL document CHEMBL4325840, “Design, synthesis and evaluation of novel hybrids between 4-anilinoquinazolines and substituted triazoles as potent cytotoxic agents” (Bioorg Med Chem Lett, 2018).
# pIC50: −log10 of the molar value. Counter-ions that a name gives are not always drawn.
# Assays:
# HepG2 [1] = experiment: Cytotoxicity against human HepG2 cells after 3 days by MTT assay; type: functional, cell-based
# SK-LU-1 [2] = experiment: Cytotoxicity against human SK-LU-1 cells after 3 days by MTT assay; type: functional, cell-based
# KB [3] = experiment: Cytotoxicity against human KB cells after 3 days by MTT assay; type: functional, cell-based
# SK-LU-1 [4] = experiment: Potency index, ratio of erlotinib IC50 to compound IC50 for human SK-LU-1 cells; type: functional
# HepG2 [5] = experiment: Potency index, ratio of erlotinib IC50 to compound IC50 for human HepG2 cells; type: functional
# HepG2 [6] = experiment: Potency index, ratio of erlotinib hydrochloride IC50 to compound IC50 for human HepG2 cells; type: functional
# KB [7] = experiment: Potency index, ratio of erlotinib IC50 to compound IC50 for human KB cells; type: functional
# KB [8] = experiment: Potency index, ratio of erlotinib hydrochloride IC50 to compound IC50 for human KB cells; type: functional
# SK-LU-1 [9] = experiment: Potency index, ratio of erlotinib hydrochloride IC50 to compound IC50 for human SK-LU-1 cells; type: functional
Compound,"pIC50 (HepG2 [1]; Homo sapiens, HepG2, 72 h)","pIC50 (SK-LU-1 [2]; Homo sapiens, SK-LU-1, 72 h)","pIC50 (KB [3]; Homo sapiens, KB, 72 h)",Ratio IC50 (SK-LU-1 [4]),Ratio IC50 (HepG2 [5]),Ratio IC50 (HepG2 [6]),Ratio IC50 (KB [7]),Ratio IC50 (KB [8]),Ratio IC50 (SK-LU-1 [9]),pIC50 (HepG2 [1]; hepg2),pIC50 (SK-LU-1 [2]; sk-lu-1),pIC50 (KB [3]; kb)
C#Cc1cccc(Nc2ncnc3cc4c(cc23)OCCCO4)c1,4.16,4.09,4.26,–,–,–,–,–,–,–,–,–
O=[N+]([O-])c1cccc(-n2cc(-c3cccc(Nc4ncnc5cc6c(cc45)OCO6)c3)nn2)c1,5.16,5.18,5.20,<=100,<=100,<=100,<=100,<=100,<=100,–,–,–
C#Cc1cccc(Nc2ncnc3cc4c(cc23)OCCO4)c1,5.55,5.47,5.59,<=100,<=100,<=100,<=100,<=100,<=100,–,–,–
O=[N+]([O-])c1ccc(-n2cc(-c3cccc(Nc4ncnc5ccccc45)c3)nn2)cc1,5.09,5.04,5.26,<=100,<=100,<=100,<=100,<=100,<=100,–,–,–
Cc1c2ccncc2c(C)c2c1[nH]c1ccccc12 [ELLIPTECINE],5.57,5.86,5.71,–,–,–,–,–,–,–,–,–
O=[N+]([O-])c1ccccc1-n1cc(-c2cccc(Nc3ncnc4ccccc34)c2)nn1,5.33,5.32,5.26,<=100,<=100,<=100,<=100,<=100,<=100,–,–,–
O=[N+]([O-])c1ccccc1-n1cc(-c2cccc(Nc3ncnc4cc5c(cc34)OCCO5)c2)nn1,6.85,5.99,7.40,<=100,<=100,<=100,<=100,<=100,<=100,–,–,–
O=[N+]([O-])c1cccc(-n2cc(-c3cccc(Nc4ncnc5ccccc45)c3)nn2)c1,3.54,3.59,3.98,–,–,–,–,–,–,–,–,–
N#Cc1cc(-n2cc(-c3cccc(Nc4ncnc5cc6c(cc45)OCCO6)c3)nn2)ccc1C(F)(F)F,5.22,5.35,6.57,<=100,<=100,<=100,<=100,<=100,<=100,–,–,–
N#Cc1cc(-n2cc(-c3cccc(Nc4ncnc5cc6c(cc45)OCO6)c3)nn2)ccc1C(F)(F)F,5.21,4.56,5.34,<=100,<=100,<=100,<=100,<=100,<=100,–,–,–
C#Cc1cccc(Nc2ncnc3cc4c(cc23)OCO4)c1,4.58,4.19,4.12,–,–,–,–,–,–,–,–,–
C#Cc1cccc(Nc2ncnc3cc(OCCOC)c(OCCOC)cc23)c1 [ERLOTINIB HYDROCHLORIDE],–,–,–,–,–,–,–,–,–,4.85,4.51,4.30
O=[N+]([O-])c1cccc(-n2cc(-c3cccc(Nc4ncnc5cc6c(cc45)OCCCO6)c3)nn2)c1,4.11,3.64,4.27,–,–,–,–,–,–,–,–,–
O=[N+]([O-])c1ccc(-n2cc(-c3cccc(Nc4ncnc5cc6c(cc45)OCCO6)c3)nn2)cc1,3.64,4.26,4.10,–,–,–,–,–,–,–,–,–
C#Cc1cccc(Nc2ncnc3cc(OCCOC)c(OCCOC)cc23)c1 [ERLOTINIB],–,–,–,–,–,–,–,–,–,–,4.00,4.89
O=[N+]([O-])c1ccc(-n2cc(-c3cccc(Nc4ncnc5cc6c(cc45)OCO6)c3)nn2)cc1,4.95,4.35,4.52,–,–,–,–,–,–,–,–,–
O=[N+]([O-])c1ccccc1-n1cc(-c2cccc(Nc3ncnc4cc5c(cc34)OCO5)c2)nn1,3.68,3.66,3.71,–,–,–,–,–,–,–,–,–
N#Cc1cc(-n2cc(-c3cccc(Nc4ncnc5ccccc45)c3)nn2)ccc1C(F)(F)F,5.73,5.35,5.84,<=100,<=100,<=100,<=100,<=100,<=100,–,–,–
N#Cc1cc(-n2cc(-c3cccc(Nc4ncnc5cc6c(cc45)OCCCO6)c3)nn2)ccc1C(F)(F)F,5.79,5.74,5.83,<=100,<=100,<=100,<=100,<=100,<=100,–,–,–
C#Cc1cccc(Nc2ncnc3ccccc23)c1,5.38,5.38,5.26,<=100,<=100,<=100,<=100,<=100,<=100,–,–,–
O=[N+]([O-])c1cccc(-n2cc(-c3cccc(Nc4ncnc5cc6c(cc45)OCCO6)c3)nn2)c1,6.06,5.25,5.45,<=100,<=100,<=100,<=100,<=100,<=100,–,–,–
O=[N+]([O-])c1ccccc1-n1cc(-c2cccc(Nc3ncnc4cc5c(cc34)OCCCO5)c2)nn1,4.36,4.83,4.69,<=100,<=100,<=100,<=100,<=100,<=100,–,–,–
